The values that follow are results of earlier work, collected in paper PMC11096148 (EJNMMI Radiopharmacy and Chemistry, 2024).

The series relates to ASGR. Further details: method as in Stokmaier et al. [2009]. The note with it: higher than galactose; ref Stokmaier et al. [2009]; cited from earlier work.

As for `CC(=O)N[C@H]1C(O)O[C@H](CO)[C@H](O)[C@@H]1O` (mixture of isomers) [GalNAc, N-acetylgalactosamine], the “affinity for the ASGR relative to galactose” value is listed as 10 times.
